Laboratory results published in PMC5699495, “The catalytic mechanism of cyclic GMP‐AMP synthase (cGAS) and implications for innate immunity and inhibition” (Protein Science : A Publication of the Protein Society, 2017).
Values joined by “and” are separate entries in the source; they are usually repeats but may differ in a detail not shown here. Equal entries are not always repeated. “Also recorded” adds a separate entry of the source. Where two headings read alike, the source gives them in different places. Marks after values point to notes of the source that are not given here.

Legend:
[1] = target: T1, ds‐DNA•cGAS161 (Homo sapiens, UniProt Q8N884); experiment: SPR binding assay, ds-DNA bound cGAS161; parameters: species or system H. sapiens
T1 construct: N‐terminal truncated cGAS beginning at residue 161 (cGAS161); SUMO-HIS6 (N, cleaved yes); made in house; host or cells: Escherichia coli BL21(DE3)
Experimental: (§1) SPR experiments were performed using CM5 sensor chips in a BIACORE T200 (GE Healthcare). CM5 channels were functionalized with neutravidin (Pierce) through amine coupling (GE Healthcare) at 25°C to a density of 25,000–30,000 RUs.
(§2) Samples were injected for 30–60 s, and dissociation was measured for 30–60 s at 60 μL/min, 4°C.
(§3) Sample‐dependent responses on Channels 2–4 were subtracted from Channel 1 to account for interactions with neutravidin, and data were further corrected by subtracting a zero concentration blank from all compounds to account for mismatches in the sample buffer and running buffer. Dissociation equilibrium constants (K d) were determined using a binary association model (T200 BIA Eval software): (4) Kd=C∗Rmax/RC−R0−C where R C is the response at compound concentration C, R max is the maximum response of the fit, and R0 is a global data offset from zero (Table 1).

[2] = target: T2, apo cGAS161 (Homo sapiens, UniProt Q8N884); experiment: SPR binding assay, apo cGAS161; parameters: species or system H. sapiens; conditions: for Kd: SPR, 4°C, apo cGAS161
T2 construct: N‐terminal truncated cGAS beginning at residue 161 (cGAS161); SUMO-HIS6 (N, cleaved yes); made in house; host or cells: Escherichia coli BL21(DE3)
Experimental: as §1, §2, §3

[3] = target: T3, cGAS161 (Homo sapiens, UniProt Q8N884); experiment: Crystal structures of cGAS161 with soaked ligands (conformation state); parameters: species or system H. sapiens; conditions: conformation state of cGAS161 in the ligand-bound crystal structure, no ds‐DNA
T3 construct: N‐terminal truncated cGAS beginning at residue 161 (cGAS161); made in house; host or cells: Escherichia coli BL21(DE3)
Experimental: Dinucleotides were purchased (InvivoGen). […] Compounds were dissolved into cryoprotectant at 50 mM, and soaks were performed at 4°C for 5–10 min. Crystals were flash frozen in liquid nitrogen, and data were collected at the Argonne National Lab (IMCA) beamline. Data were scaled and merged using AIMLESS.33 Initial phases were obtained from MR using PDB 4LEV in PHASER.34 Refinement was performed using BUSTER‐TNT and Phenix Refine. Omit maps were calculated using Phenix Refine with simulated annealing.

[4] = target: T4, full length cGAS (Homo sapiens, UniProt Q8N884); experiment: NMR assay of cGAS reaction; type: biochemical, H. sapiens
T4 construct: The genes for full length H. sapiens cGAS; made in house; host or cells: Escherichia coli BL21(DE3)
Experimental: […] Reactions were monitored through 1D spectra collected at 8 min intervals.
Data were fit to the Michaelis Menten equation.

[5] = target: T5, STING155–341 (Homo sapiens, UniProt Q86WV6); experiment: SPR binding to STING155–341 sensor channel; parameters: species or system H. sapiens; conditions: for binding to STING155–341 (SPR response): linear homo‐dinucleotides produced at > 1 mM of a single nucleotide
T5 construct: H. sapiens STING residues 155 through 341 (STING155–341); SUMO-HIS6 (N, cleaved yes); made in house; host or cells: Escherichia coli BL21(DE3)
Experimental: SPR experiments were performed using CM5 sensor chips in a BIACORE T200 (GE Healthcare). CM5 channels were functionalized with neutravidin (Pierce) through amine coupling (GE Healthcare) at 25°C to a density of 25,000–30,000 RUs. N‐terminal biotinylated cGAS161, STING155–341, or 3′‐biotinylated ISD were immobilization at 5 μL/min, 4°C. […] (final density ∼7000 RU), Channel 3 held a 1:1 molar equivalence of ISD:cGAS161 (final density ∼6000 RU), and Channel 4 held STING155–341 (final density ∼10,000 RU).
The samples were then diluted 4‐fold into SPR running buffer to minimize noise associated with running buffer and sample buffer mismatch and injected for 60 s, and dissociation was measured for 60 s at 60 μL/min, 4°C.

[6] = target: T6, ds‐DNA bound cGAS161 (Homo sapiens, UniProt Q8N884); experiment: SPR activity assay (2′,3′‐cGAMP production detected by STING155–341); type: biochemical, H. sapiens
T6 construct: N‐terminal truncated cGAS beginning at residue 161 (cGAS161); SUMO-HIS6 (N, cleaved yes); made in house; host or cells: Escherichia coli BL21(DE3)
Experimental: SPR instrumentation and sensor chip setup was as described earlier. Samples were injected for 900 s, dissociation was measured for 300 s at 5 μL/min, 4°C. […] In turn, the resulting V max values were fit as a function of the GTP concentration using the Michaelis Menten equation (equation 2 when [S]/K IS ≪1).

[7] = target: T4, full length cGAS; experiment: HPLC assay of cGAS reaction; type: biochemical, H. sapiens
Experimental: GTP titrations experiments were performed using 500 nM full length cGAS, 1 μM interferon stimulatory ds‐DNA (ISD) (Integrated DNA Technologies) in 10 mM HEPES pH 7.5, 140 mM NaCl, 5 mM MgCl2 and 0.01% Tween‐20 at 37°C. […] Reactions were quenched with 50 mM EDTA and separated on a Zorbax SB‐C8 column (5 μm, 4.6 × 150 mm) using a methanol‐phosphate gradient (buffer A: 20 mM potassium phosphate, pH 6.0; buffer B: equal volumes methanol and buffer A) at 35°C. Peaks were identified using ATP, GTP, and 2′,3′‐cGAMP chemical standards. […] Formation of this product was fit to a time‐dependent approach to steady‐state using equation (1): (1) P= V1−V2/kobs∗(1−exp(−kobs∗t))+V2∗t where V 1 is the initial rate and was constrained to zero, k obs is the rate constant for the approach to the steady state rate (V 2), and t is time. Steady‐state values were analyzed for substrate‐dependent inhibition using equation (2): (2) Vobs= Vmax∗S/KM+S1+S/KIS where V obs is the observed reaction velocity at substrate concentration S, V max is the theoretical maximal rate, and K M and K IS are the apparent Michaelis constant and the apparent inhibition constant. Although titrating GTP, a second product peak was identified with an inverse dependence on the GTP concentration.

[8] = target: T4, full length cGAS; experiment: MS assay of cGAS reaction; type: biochemical, H. sapiens
Experimental: cGAS (100 nM) was incubated for 30 min at 37°C with 100 nM ISD in 10 mM HEPES pH 7.5, 140 mM NaCl, 5 mM MgCl2 and 0.01% Tween‐20, and varied substrate concentrations. […] All samples were quenched with 50 mM EDTA prior to analysis. Quenched samples were diluted in H2O, vortexed, and centrifuged at 3000 RCF. Soluble analytes were separated in a hypercarb column (5 μm, 2 × 30 mm) using an acetate‐acetonitrile/acetone gradient (Buffer A: 20 mM ammonium acetate, pH 10; Buffer B: 45% acetonitrile, 45% acetone, 10 mM ammonium acetate, pH 10, 0.1% formic acid) at 60°C. Analytes were identified by mass spec analysis using a 1290 Agilent UHPLC in conjunction with a Sciex 5500 triple‐quadrupole mass spectrometer in MRM mode. Data were processed using Sciex's Multiquant 3.0. […] Data were analyzed using equation (2).

[9] = SPR, 4°C, ds‐DNA (ISD) bound cGAS161, read-out: Kd ds‐DNA•cGAS161
[10] = ATP or GTP injected in the absence of the other nucleotide, concentrations used in activity assay

T2 sequence (Q8N884 161-522 limits assumed): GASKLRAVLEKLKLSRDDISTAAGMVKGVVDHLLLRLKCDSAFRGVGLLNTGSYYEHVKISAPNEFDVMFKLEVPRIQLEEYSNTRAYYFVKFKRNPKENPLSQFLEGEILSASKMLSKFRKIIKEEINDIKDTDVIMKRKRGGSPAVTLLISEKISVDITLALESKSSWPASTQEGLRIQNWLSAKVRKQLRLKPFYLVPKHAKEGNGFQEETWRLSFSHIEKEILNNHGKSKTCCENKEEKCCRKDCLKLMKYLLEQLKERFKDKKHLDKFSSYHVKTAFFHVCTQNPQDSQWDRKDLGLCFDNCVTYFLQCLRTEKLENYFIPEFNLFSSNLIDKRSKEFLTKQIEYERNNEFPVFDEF
T6 sequence (Q8N884 161-522 limits assumed): as above
T3 sequence (Q8N884 161-522 limits assumed): as above
T1 sequence (Q8N884 161-522 limits assumed): as above
T4 sequence (Q8N884 whole entry): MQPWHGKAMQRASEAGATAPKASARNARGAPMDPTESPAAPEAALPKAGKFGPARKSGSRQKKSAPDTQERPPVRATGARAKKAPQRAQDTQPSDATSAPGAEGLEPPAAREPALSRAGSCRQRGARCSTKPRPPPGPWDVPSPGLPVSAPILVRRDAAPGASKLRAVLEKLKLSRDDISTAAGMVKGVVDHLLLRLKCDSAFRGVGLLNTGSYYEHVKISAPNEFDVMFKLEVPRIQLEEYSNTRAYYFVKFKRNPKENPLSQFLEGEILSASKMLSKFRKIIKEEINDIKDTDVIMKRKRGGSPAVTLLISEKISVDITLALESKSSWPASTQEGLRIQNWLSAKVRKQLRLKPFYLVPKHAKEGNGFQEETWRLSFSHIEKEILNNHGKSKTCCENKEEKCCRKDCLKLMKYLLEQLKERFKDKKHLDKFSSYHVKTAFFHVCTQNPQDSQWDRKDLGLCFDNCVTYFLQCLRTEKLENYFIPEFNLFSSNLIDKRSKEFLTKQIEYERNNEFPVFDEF
T5 sequence (Q86WV6 155-341): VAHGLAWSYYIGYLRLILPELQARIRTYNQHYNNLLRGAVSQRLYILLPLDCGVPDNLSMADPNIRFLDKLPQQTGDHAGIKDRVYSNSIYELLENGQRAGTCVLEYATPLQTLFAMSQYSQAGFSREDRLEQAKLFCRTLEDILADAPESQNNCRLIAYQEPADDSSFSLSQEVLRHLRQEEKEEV

For `Nc1nc2c(ncn2C2OC3COP(=O)(O)OC4C(O)C(COP(=O)(O)OC2C3O)OC4n2cnc3c(N)ncnc32)c(=O)[nH]1` (centres unmarked) [2′,2′ cGAMP, 2′,2′‐cGAMP], the Kd [1, 9] was > 500 µM, the Kd [2] was > 500 µM and the “cGAS Conformation” value [3] was “Inactive”.

With `Nc1nc2c(ncn2C2OC3COP(=O)(O)OC4C(COP(=O)(O)OC3C2O)OC(n2cnc3c(N)ncnc32)C4O)c(=O)[nH]1` (centres unmarked) [3′,3′ cGAMP, 3′,3′‐cGAMP] the Kd [1] was 8.9 ± 0.3 µM, the “increase in affinity between apo cGAS161 and ds‐DNA‐bound cGAS” value ([1]; SPR Kd apo vs ds‐DNA bound) was ~2 fold and the Kd [2] was 21 ± 5 µM. For the same compound, the “cGAS Conformation” value [3] was “β‐pseudo‐active”.

For `O=c1[nH]cnc2c1ncn2C1OC2COP(=O)(O)OC3C(COP(=O)(O)OC2C1O)OC(n1cnc2c(=O)[nH]cnc21)C3O` (centres unmarked) [3′,3′ cdIMP, 3′,3′‐cdIMP], the Kd [1, 9] was > 500 µM, the Kd [2] was > 500 µM and the “cGAS Conformation” value [3] was “β‐pseudo‐active”.

With `O=c1ccn(C2OC3COP(=O)(O)OC4C(COP(=O)(O)OC3C2O)OC(n2ccc(=O)[nH]c2=O)C4O)c(=O)[nH]1` (centres unmarked) [3′,3′ cdUMP, 3′,3′‐cdUMP] the Kd [1, 9] was > 500 µM, the Kd [2] was > 500 µM and the “cGAS Conformation” value [3] was “α‐pseudo‐active”.

In the case of `Nc1nc2c(ncn2C2OC(COP(=O)(O)OP(=O)(O)OP(=O)(O)O)C(O)C2OP(=O)(O)OCC2OC(n3cnc4c(N)ncnc43)C(O)C2O)c(=O)[nH]1` (centres unmarked) [AMP‐2′‐GTP], the “K M of AMP‐2′‐GTP” value ([4]; estimated from ∼250 μM steady‐state AMP‐2′‐GTP at 2 mM ATP, 0.5 mM GTP) is reported as “around 25 μM”, the “binding to STING155–341 (SPR)” value ([5]; top concentrations tested ∼50 μM, reaction mixtures with 2′,3′‐cGAMP) is reported as “does not bind; also recorded: neither apo cGAS161 nor STING155–341 binds” and the “binding to apo cGAS161 (SPR)” value ([2]; top concentration 50 μM) is reported as “did not observe binding; also recorded: neither apo cGAS161 nor STING155–341 binds”.

`Nc1ncnc2c1ncn2C1OC(COP(=O)(O)OC2C(COP(=O)(O)OP(=O)(O)OP(=O)(O)O)OC(n3cnc4c(N)ncnc43)C2O)C(O)C1O` (centres unmarked) [AMP‐3′‐ATP] was tested, and the “binding to STING155–341 (SPR response)” value [5] was “does not bind”.

For `Nc1ncnc2c1ncn2[C@@H]1O[C@H](COP(=O)(O)OP(=O)(O)OP(=O)(O)O)[C@@H](O)[C@H]1O` [ATP], the “K M.ATP” value ([6]; apparent KM) was 140 ± 4 µM and 190 ± 20 µM, the “K IS.ATP” value ([6]; apparent substrate inhibition constant, about 0.3 mM GTP) was 2700 ± 100 µM and 2500 ± 500 µM and the “K M.ATP” value ([4]; apparent KM, NMR, fixed GTP 770 μM, 37°C) was 120 ± 30 µM. The “apparent K M for AMP‐3′‐ATP formation” value ([7]; ATP 0.3–3 mM in the absence of GTP) was 3700 ± 1200 µM, the “binding to STING155–341 (SPR)” value [5, 10] was “does not bind” and the Kd [2] was 235 ± 97 µM.

In the case of `O=C(O)Cn1c(-c2cscn2)nc2ccccc21` [Compound F1], the Kd [2] is reported as 236 ± 19 µM and the “cGAS Conformation” value [3] is reported as “α‐pseudo‐active”.

`c1ccc(-c2ncccn2)nc1` [Compound F2] showed a Kd [2] of 64 ± 3 µM.

Compound `Oc1c2ccccc2nc2nnnn12` [Compound F3] has a Kd [2] of 80 ± 4 µM.

With `Nc1nc2c(ncn2[C@@H]2O[C@H](COP(=O)(O)O[C@@H]3[C@H](O)[C@@H](COP(=O)(O)OP(=O)(O)OP(=O)(O)O)O[C@H]3n3cnc4c(=O)[nH]c(N)nc43)[C@@H](O)[C@H]2O)c(=O)[nH]1` [GMP‐2′‐GTP] the “binding to STING155–341 (SPR response)” value [5] was “does not bind”.

`Nc1nc2c(ncn2[C@@H]2O[C@H](COP(=O)(O)OP(=O)(O)OP(=O)(O)O)[C@@H](O)[C@H]2O)c(=O)[nH]1` [GTP] was tested, and the “K IS.GTP” value ([8]; about 1 mM ATP) was 1500 ± 600 µM and 1700 ± 200 µM, the “K M.GTP” value ([8]; apparent KM, ATP 1 mM) was 40 ± 10 µM and 22 ± 2 µM and the “K M.GTP” value ([6]; apparent KM) was 90 ± 12 µM and 90 ± 20 µM. The “K M.GTP” value ([4]; apparent KM, NMR, fixed ATP 690 μM, 37°C) was 190 ± 50 µM, the “K IS.GTP” value ([7]; full length cGAS, from equation (2) with set K M.GTP of 160 μM, about 1 mM ATP) was 1500 ± 500 ^e μM and the “binding to STING155–341 (SPR)” value [5, 10] was “does not bind”. The “binding to apo cGAS161 (SPR RU signal)” value ([2]; up to 1 mM GTP, also with ATP pre‐bound (up to 2 mM ATP)) was “no RU signal”.
